Reference: patent US20240158348A1, “HERBICIDAL CYCLIC AMIDES N-SUBSTITUTED WITH A HALOALKYLSULFONYLANILIDE GROUP” (FMC Corporation, priority 2021, published 2024)

Assays:
Assay type in all cases: in vivo
[1] = system: oat, wild (wild oat, Avena fatua); experiment: Test C postemergence, wild oat; conditions: for Oat, Wild plant response rating: 31 g ai/ha Postemergence, visual injury, 0 to 100 scale (0 no effect, 100 complete control); for Plant response rating (0 to 100 scale), Oat, Wild: 125 g ai/ha Postemergence, 0 is no effect, 100 is complete control
kochia (Bassia scoparia) = experiment: Test C preemergence, kochia; conditions: 0 is no effect, 100 is complete control
In short: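 Steps: sow in loam soil blended with sand; treat soil preemergence by directed spray, or treat young plants (2–10 cm, one to two leaves) postemergence; hold in greenhouse 10 or 12 days; rate injury visually relative to untreated controls on a 0–100 scale.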

[2] = system: blackgrass (Alopecurus myosuroides); experiment: Test C postemergence, blackgrass; conditions: 125 g ai/ha Postemergence; 0 is no effect, 100 is complete control

Row | Compound | Oat, Wild plant response rating [1] | Plant response rating (0 to 100 scale), Oat, Wild [1] | Plant response rating (0 to 100 scale), Kochia (kochia (Bassia scoparia); 31 g ai/ha Preemergence) | Plant response rating (0 to 100 scale), Kochia (kochia (Bassia scoparia); 125 g ai/ha Preemergence) | Plant response rating (0 to 100 scale), Blackgrass [2]
1 | Cc1c(NS(=O)(=O)C(F)(F)F)cc(N2CCC(OC3CC3)C2=O)c(C)c1F (stereo not drawn) [Compound 26] | 20 | 50 | 100 | 100 | 90
2 | Cc1c(N2CCC(OC3CC3)C2=O)cc(N(COC(=O)C(C)(C)C)S(=O)(=O)C(F)(F)F)c(C)c1F (stereo not drawn) [Compound 23] | 20 | 50 | 20 | 90 | 50
3 | CC(=O)N(c1cc(N2CCC(OC3CC3)C2=O)c(C)cc1C)S(=O)(=O)C(F)(F)F (stereo not drawn) [Compound 17] | 30 | 70 | 80 | 100 | 80
4 | Cc1c(N2CCCC(OC3CCC3)C2=O)cc(N(COC(=O)C(C)(C)C)S(=O)(=O)C(F)(F)F)c(C)c1F (stereo not drawn) [Compound 39] | 0 | 20 | 20 | 60 | 10
5 | Cc1cc(C)c(N2CC/C(=N\O)C2=O)cc1NS(=O)(=O)C(F)(F)F [Compound 10, 1,1,1-trifluoro-N-[5-[3-(hydroxyimino)-2-oxo-1-pyrrolidinyl]-2,4-dimethylphenyl]methanesulfonamide] | 80 | 80 | 90 | 100 | 90
6 | Cc1c(NS(=O)(=O)C(F)(F)F)cc(N2CCCC(OC3CCC3)C2=O)c(C)c1F (stereo not drawn) [Compound 36] | 30 | 30 | 20 | 90 | 30
7 | CCOC(=O)N(c1cc(N2CCC(OC3CC3)C2=O)c(C)cc1C)S(=O)(=O)C(F)(F)F (stereo not drawn) [Compound 19] | 0 | 30 | 0 | 70 | 40
8 | CCCC(=O)OCN(c1cc(N2CCC(OC3CC3)C2=O)c(C)cc1C)S(=O)(=O)C(F)(F)F (stereo not drawn) [Compound 20] | 30 | 80 | 80 | 100 | 90
9 | CO/N=C1\CCN(c2cc(NS(=O)(=O)C(F)(F)F)c(C)cc2C)C1=O [Compound 9, 1,1,1-trifluoro-N-[5-[3-(methoxyimino)-2-oxo-1-pyrrolidinyl]-2,4-dimethylphenyl]methanesulfonamide] | 80 | 80 | 100 | 100 | 90
